A value given as a limit tells only on which side of the number the result lay.

The assay addresses T1, Fatty-acid amide hydrolase 1 (Mus musculus, UniProt O08914).
T1 sequence (O08914 whole entry): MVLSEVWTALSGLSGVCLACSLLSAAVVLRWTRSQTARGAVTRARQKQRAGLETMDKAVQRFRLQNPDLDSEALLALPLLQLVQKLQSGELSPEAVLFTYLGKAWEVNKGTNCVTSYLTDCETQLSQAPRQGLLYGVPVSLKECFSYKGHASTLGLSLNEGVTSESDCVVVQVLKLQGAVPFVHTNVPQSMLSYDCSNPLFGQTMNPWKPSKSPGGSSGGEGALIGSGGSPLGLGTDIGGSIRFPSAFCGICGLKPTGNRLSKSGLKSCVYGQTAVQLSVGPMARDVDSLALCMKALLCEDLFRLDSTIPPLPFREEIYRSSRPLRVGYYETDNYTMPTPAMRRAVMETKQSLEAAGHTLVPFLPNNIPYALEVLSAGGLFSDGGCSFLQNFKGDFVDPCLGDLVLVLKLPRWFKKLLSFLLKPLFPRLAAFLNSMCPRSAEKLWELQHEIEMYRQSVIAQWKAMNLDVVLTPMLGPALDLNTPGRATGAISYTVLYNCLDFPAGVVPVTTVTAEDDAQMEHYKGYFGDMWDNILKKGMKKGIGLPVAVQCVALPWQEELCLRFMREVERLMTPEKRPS
In words: Inhibition of mouse FAAH isolated from brain homogenate using [3H-ethanolamine]AEA as substrate incubated for 20 mins prior to substrate addition measured after 15 mins by beta counting analysis.
In general, IC50 refers to the midpoint of a concentration-inhibition curve. Higher therefore signals a need for much substance. Consider `CCCCNC(=O)Oc1cccc(-c2sc(C)cc2C(N)=O)c1`, for which the IC50 is more than 200 nM.

One may read the Ki as the dissociation constant of the complex between target and ligand, obtained from inhibition or displacement. A lower Ki goes with a stronger hold on the target. For the compound `NC(=O)c1ccn(-c2cccc(OC(=O)NC3CCCCC3)c2)c1`, it took 120 nM to reach half-maximal inhibition (IC50) and the Ki was 32 nM.

With `CCCCNC(=O)Oc1cccc(-c2cc(C(N)=O)c(C)o2)c1`, the IC50 is more than 200 nM.

With `NC(=O)c1ccn(-c2cccc(OC(=O)NCCOCCOc3c(F)cc(F)cc3F)c2)c1`, half-maximal inhibition (IC50) required 43 nM and affinity was put at a Ki of 11 nM.

Turning to `CCCCNC(=O)Oc1cccc(-n2ccc(C(N)=O)c2)c1`, the half-maximal inhibitory concentration (IC50) was 240 nM and the affinity, expressed as Ki, was 60 nM.

Compound `NC(=O)c1ccn(-c2cccc(OC(=O)NCCOCCOc3ccccc3)c2)c1` yielded an IC50 of 87 nM and an inhibitory constant (Ki) of 23 nM.

`COc1cccc(-c2c(C(=O)NCCCCCc3ccccc3)cc(C)n2Cc2ccccc2)c1`: the IC50 was more than 50000 nM.

For `Cc1oc(-c2cccc(OC(=O)NC3CCCCC3)c2)cc1C(N)=O`, the IC50 is more than 200 nM.

The compound `C#CCCCCCCCCCOC(=O)c1ccn(-c2cccc(OC(=O)NCCCC)c2)c1` had a concentration for half-maximal inhibition (IC50) of more than 70 nM.

In the case of `COc1cccc(-c2c(C(=O)NCCCCCCc3ccccc3)cc(C)n2Cc2ccccc2)c1`, the IC50 was more than 200 nM.

In the case of `Cc1cc(C(=O)NCCCCCCc2ccccc2)c(-c2cccc(OC(=O)NC3CCCCC3)c2)n1Cc1ccccc1`, the 50% inhibitory concentration (IC50) is more than 200 nM.

For `C#CCCCCCCCCCOC(=O)c1ccn(-c2cccc(OC(=O)NC3CCCCC3)c2)c1`, the IC50 was more than 10000 nM.

`O=C(NC1CCCCC1)Oc1cccc(-n2ccc(C(=O)OCCCCCCc3ccccc3)c2)c1` gave an IC50 of more than 50000 nM.

The record behind these values is ChEMBL document CHEMBL2163339, “Discovery of potent inhibitors of human and mouse fatty acid amide hydrolases” (J Med Chem, 2012).
